These results are taken from patent US20260200920A1, “SUBSTITUTED AMINOPYRIDINE COMPOUNDS FOR USE AS AKT1 INHIBITORS” (Atavistik Bio, Inc., priority 2023, published 2026).

In experiment [1] the target is T1, human recombinant kinase full-length wildtype AKT1 (Homo sapiens, UniProt P31749).
T1 construct: Purified human recombinant kinase full-length wildtype AKT1 was expressed in insect cells; made in house; host or cells: insect cells
As to the kind of experiment: AKT1 kinase assay (wildtype, TR-FRET, Lance). Type of experiment: biochemical. Conditions: 0.6 nM wildtype AKT1, 50 nM Ulight-CREBtide, either 50 μM ATP or 2 mM ATP, 60 min at RT. An outline of the steps: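 Insect-cell-expressed full-length human AKT1, PDPK1-activated (0.6 nM), preincubated with compound 15 min at RT, then reacted 60 min at RT with 50 nM ULight-CREBtide and 50 μM or 2 mM ATP (pH 7.5, 1% DMSO). Phospho-CREBtide read by Eu-anti-phospho-Ser133 TR-FRET (665/620 ratio); IC50 from 10-point 4-parameter fit.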
Background: Time-resolved FRET reads energy transfer from a long-lived donor to a nearby acceptor.

Experiment [2] addresses T2, human recombinant kinase full-length AKT1 E17K (Homo sapiens, UniProt P31749, E17K).
T2 construct: Purified human recombinant kinase full-length AKT1 E17K was expressed in insect cells; made in house; host or cells: insect cells
The experiment in a line: AKT1 E17K kinase assay (TR-FRET, Lance). Conditions: 0.6 nM AKT1 E17K, 50 nM Ulight-CREBtide, either 50 μM ATP or 2 mM ATP, 60 min at RT. Type of experiment: biochemical. In short, it runs like this:
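Full-length AKT1 E17K from insect cells, PDPK1-activated, at 0.6 nM with 50 nM Ulight-CREBtide and 50 μM or 2 mM ATP, pH 7.5, 1% DMSO. Enzyme and compound preincubated 15 min, reaction run 60 min at RT; Eu-anti-phospho-CREB (Ser133) TR-FRET 665/620 ratio, 10-point curve, IC50 by 4-parameter fit.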

In general, IC50 refers to the concentration that inhibits the measured activity by half.

T1 sequence (P31749 whole entry): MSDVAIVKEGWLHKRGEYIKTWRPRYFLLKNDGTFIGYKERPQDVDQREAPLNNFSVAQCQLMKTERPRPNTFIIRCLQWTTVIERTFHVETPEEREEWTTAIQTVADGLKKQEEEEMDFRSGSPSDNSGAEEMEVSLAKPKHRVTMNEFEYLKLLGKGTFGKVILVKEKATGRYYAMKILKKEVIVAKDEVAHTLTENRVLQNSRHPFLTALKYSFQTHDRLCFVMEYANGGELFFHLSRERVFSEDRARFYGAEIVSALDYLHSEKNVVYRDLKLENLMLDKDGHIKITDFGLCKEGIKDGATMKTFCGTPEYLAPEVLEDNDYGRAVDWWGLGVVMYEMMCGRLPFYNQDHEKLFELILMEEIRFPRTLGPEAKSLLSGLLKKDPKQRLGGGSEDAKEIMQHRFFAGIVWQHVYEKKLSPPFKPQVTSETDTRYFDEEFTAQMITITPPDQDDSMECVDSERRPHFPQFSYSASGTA
T2 sequence (P31749 whole entry E17K): as the sequence (P31749 whole entry) above, with E17K counted along it

As for `Nc1ncccc1-c1nc2cc(-c3ccccc3)cnc2n1-c1ccc(C2CN(C[C@H]3CC[C@H](C(=O)O)CC3)C2)cc1` [Compound I-65, (1r,4r)-4-((3-(4-(2-(2-aminopyridin-3-yl)-6-phenyl-3H-imidazo[4,5-b]pyridin-3-yl)phenyl)azetidin-1-yl)methyl)cyclohexane-1-carboxylic acid], the IC50 in experiment [1] was less than 20000 nM; in experiment [2], not below 2000 nM.
`Nc1ncccc1-c1nc2ccc(-c3ccc(F)cc3)nc2n1-c1ccc(C2CN(C[C@H]3CC[C@H](C(=O)O)CC3)C2)cc1` [Compound I-66, (1r,4r)-4-((3-(4-(2-(2-aminopyridin-3-yl)-5-(4-fluorophenyl)-3H-imidazo[4,5-b]pyridin-3-yl)phenyl)azetidin-1-yl)methyl)cyclohexane-1-carboxylic acid]: the results for the IC50 in experiment [1] and in experiment [2] were less than 20000 nM and 500 to 2000 nM, respectively.
In the case of `Nc1ncccc1-c1nc2cc(-c3ccc(F)cc3)cnc2n1-c1ccc(C2CN(C[C@H]3CC[C@H](C(=O)O)CC3)C2)cc1` [Compound I-67, (1r,4r)-4-((3-(4-(2-(2-aminopyridin-3-yl)-6-(4-fluorophenyl)-3H-imidazo[4,5-b]pyridin-3-yl)phenyl)azetidin-1-yl)methyl)cyclohexane-1-carboxylic acid], the IC50 in experiment [1] was less than 20000 nM; in experiment [2] it was not below 2000 nM.
Taken in the same sequence, the figures for `Nc1ncccc1-c1nc2ccc(-c3ccccn3)cc2n1-c1ccc(C2CN(C[C@H]3CC[C@H](C(=O)O)CC3)C2)cc1` [Compound I-68, (1r,4r)-4-((3-(4-(2-(2-aminopyridin-3-yl)-6-(pyridin-2-yl)-1H-benzo[d]imidazol-1-yl)phenyl)azetidin-1-yl)methyl)cyclohexane-1-carboxylic acid] were less than 20000 nM and not below 2000 nM.
Consider `CC1(C)C[C@@H](CN2CC(c3ccc(-n4c(-c5cccnc5N)nc5ccc(-c6ccccc6)nc54)cc3)C2)CC[C@H]1C(=O)O` [Compound I-69, (1R,4S)-4-((3-(4-(2-(2-aminopyridin-3-yl)-5-phenyl-3H-imidazo[4,5-b]pyridin-3-yl)phenyl)azetidin-1-yl)methyl)-2,2-dimethylcyclohexane-1-carboxylic acid], for which the IC50 in experiment [1] is less than 20000 nM; in experiment [2] it was less than 500 nM.
The corresponding values for `CC1(C)C[C@H](CN2CC(c3ccc(-n4c(-c5cccnc5N)nc5ccc(-c6ccccc6)nc54)cc3)C2)CC[C@@H]1C(=O)O` [Compound I-70, (1S,4R)-4-((3-(4-(2-(2-aminopyridin-3-yl)-5-phenyl-3H-imidazo[4,5-b]pyridin-3-yl)phenyl)azetidin-1-yl)methyl)-2,2-dimethylcyclohexane-1-carboxylic acid] are less than 20000 nM and less than 500 nM.
Taken in the same sequence, the figures for `CC1(C)C[C@H](CN2CC(c3ccc(-n4c(-c5cccnc5N)nc5ccc(-c6ccccc6)nc54)cc3)C2)CC[C@H]1C(=O)O` [Compound I-71, (1R,4R)-4-((3-(4-(2-(2-aminopyridin-3-yl)-5-phenyl-3H-imidazo[4,5-b]pyridin-3-yl)phenyl)azetidin-1-yl)methyl)-2,2-dimethylcyclohexane-1-carboxylic acid] were less than 20000 nM and less than 500 nM.
Taken in the same sequence, the figures for `Nc1ncccc1-c1nc2ccc(-n3cccn3)cc2n1-c1ccc(C2CN(C[C@H]3CC[C@H](C(=O)O)CC3)C2)cc1` [Compound I-72, (1r,4r)-4-((3-(4-(2-(2-aminopyridin-3-yl)-6-(1H-pyrazol-1-yl)-1H-benzo[d]imidazol-1-yl)phenyl)azetidin-1-yl)methyl)cyclohexane-1-carboxylic acid] were less than 20000 nM and not below 2000 nM.
On to `Nc1ncccc1-c1nc2cc(-c3cccnc3)cnc2n1-c1ccc(C2CN(C[C@H]3CC[C@H](C(=O)O)CC3)C2)cc1` [Compound I-73, (1r,4r)-4-((3-(4-(2-(2-aminopyridin-3-yl)-6-(pyridin-3-yl)-3H-imidazo[4,5-b]pyridin-3-yl)phenyl)azetidin-1-yl)methyl)cyclohexane-1-carboxylic acid], for which the IC50 in experiment [1] was less than 20000 nM; in experiment [2] it was not below 2000 nM.
The corresponding values for `CC(C)[C@@H]([C@H]1CC[C@H](C(=O)O)CC1)N1CC(c2ccc(-n3c(-c4cccnc4N)nc4ccc(-c5ccccc5)nc43)cc2)C1` [Compound I-74, (1S,4r)-4-((S)-1-(3-(4-(2-(2-aminopyridin-3-yl)-5-phenyl-3H-imidazo[4,5-b]pyridin-3-yl)phenyl)azetidin-1-yl)-2-methylpropyl)cyclohexane-1-carboxylic acid] are less than 20000 nM and not below 2000 nM.
Regarding `C[C@]1(C(=O)O)CC[C@@H](CN2CC(c3ccc(-n4c(-c5cccnc5N)nc5ccc(-c6ccccc6)nc54)cc3)C2)CC1` [Compound I-75, (1s,4s)-4-((3-(4-(2-(2-aminopyridin-3-yl)-5-phenyl-311-imidazo[4,5-b]pyridin-3-yl)phenyl)azetidin-1-yl)methyl)-1-methylcyclohexane-1-carboxylic acid], the 50% inhibitory concentration (IC50) in experiment [1] is less than 20000 nM; in experiment [2], less than 500 nM.
As to `Nc1ncccc1-c1nc2ccc(-c3ccccc3)nc2n1-c1ccc(C2CCN(CC3CCC(C(=O)O)CC3)CC2)cc1` (stereo not shown) [Compound I-76, 4-((4-(4-(2-(2-aminopyridin-3-yl)-5-phenyl-3H-imidazo[4,5-b]pyridin-3-yl)phenyl)piperidin-1-yl)methyl)cyclohexane-1-carboxylic acid], the IC50 is less than 20000 nM in experiment [1] and 500 to 2000 nM in experiment [2].
Regarding `Nc1ncccc1-c1nc2ccc(-c3ccccc3)nc2n1-c1ccc(C2CCCN(CC3CCC(C(=O)O)CC3)C2)cc1` (stereo not shown) [Compound I-77, 4-((3-(4-(2-(2-aminopyridin-3-yl)-5-phenyl-3H-imidazo[4,5-b]pyridin-3-yl)phenyl)piperidin-1-yl)methyl)cyclohexane-1-carboxylic acid], the IC50 in experiment [1] is less than 20000 nM; in experiment [2] it was not below 2000 nM.
As to `Nc1ncccc1-c1nc2ccc(-c3ccccc3)nc2n1-c1ccc(C2CCN(CC3CCC(C(=O)O)CC3)C2)cc1` (stereo not shown) [Compound I-78, 4-((3-(4-(2-(2-aminopyridin-3-yl)-5-phenyl-3H-imidazo[4,5-b]pyridin-3-yl)phenyl)pyrrolidin-1-yl)methyl)cyclohexane-1-carboxylic acid], the IC50 in experiment [1] is less than 20000 nM; in experiment [2], 500 to 2000 nM.
Taken in the same sequence, the figures for `CC(c1ccc(-n2c(-c3cccnc3N)nc3ccc(-c4ccccc4)nc32)cc1)N1CCC(C(=O)O)CC1` (stereo not shown) [Compound I-79, 1-(1-(4-(2-(2-aminopyridin-3-yl)-5-phenyl-3H-imidazo[4,5-b]pyridin-3-yl)phenyl)ethyl)piperidine-4-carboxylic acid] were less than 20000 nM and not below 2000 nM.
Taken in the same sequence, the figures for `Nc1ncccc1-c1nc2ccc(-c3ccccc3)nc2n1-c1ccc(C(=O)N2CC3(CC(C(=O)O)C3)C2)cc1` [Compound I-80, 2-(4-(2-(2-aminopyridin-3-yl)-5-phenyl-3H-imidazo[4,5-b]pyridin-3-yl)benzoyl)-2-azaspiro[3.3]heptane-6-carboxylic acid] were less than 20000 nM and not below 2000 nM.
For the compound `CC(NC1CCC(C(=O)O)C1)c1ccc(-n2c(-c3cccnc3N)nc3ccc(-c4ccccc4)nc32)cc1F` (stereo not shown) [Compound I-81, 3-((1-(4-(2-(2-aminopyridin-3-yl)-5-phenyl-3H-imidazo[4,5-b]pyridin-3-yl)-2-fluorophenyl)ethyl)amino)cyclopentane-1-carboxylic acid], the IC50 in experiment [1] is less than 20000 nM; in experiment [2] it was not below 2000 nM.
